Experimental findings from PubChem BioAssay AID504544 (Sanford-Burnham Center for Chemical Genomics, 2011) are described below.

Active and inactive are the calls of the source. No rule for the calls is given here. Bounds are passed on as bounds.

The experiment deals with S. cerevisiae tim23-1 mutant growth, luminescence. Put plainly: growth inhibition of tim23-1 mutant yeast, dose response, counter-screen for tim10-1 yeast inhibitor project, luminescence, uHTS hits (AID 504544).
On to `Cn1c(NCCCO)nc2c(c1=O)C1(CCCCC1)Cc1ccccc1-2`, for which the IC50 (in general, the concentration that gives 50% inhibition) is 8.71 µM.

For the compound `CCCCCCCCCCOC(=O)Cn1c(COc2ccccc2OC)[n+](C)c2ccccc21`, the IC50 is 12 µM.

Turning to `COc1ccc(Br)cc1[C@H]1[C@@H]2C=CCC[C@@]2(C)C(=O)N1Cc1ccccc1`, the IC50 is 14.3 µM.

Consider `NC(=NCCCCCCN=C(N)/N=C(\N)Nc1ccc(Cl)cc1)/N=C(\N)Nc1ccc(Cl)cc1`, for which the IC50 is > 100 µM (inactive).

On to `Cc1ccc(/C(N)=N/OC(=O)C(C)c2ccc([N+](=O)[O-])cc2)cc1` (stereo not given), for which the IC50 is 41.9 µM.

`Cc1cc(/C=C\c2ccc3cc(N(C)C)ccc3[n+]2C)c(C)n1-c1ccccc1`: the IC50 was 5.95 µM.

`CCCn1c(CC)nc([N+](=O)[O-])c1S(=O)(=O)c1ccccc1`: the IC50 is 6.66 µM.

On to `O=C(OCn1ncc(Br)c(Br)c1=O)c1ccccc1Cl`, for which the IC50 was 2.07 µM.

In the case of `CNC(=O)c1nnsc1S(=O)(=O)c1ccc(Cl)cc1`, the IC50 is 11.5 µM.

In the case of `COc1ccccc1N1C(=O)CC(Sc2n[nH]c(-c3cccc(C)c3)n2)C1=O` (stereo not given), the IC50 is 7.77 µM.

For `CC(=O)c1ccc(NC(=S)NC(C)c2ccc(Cl)cc2Cl)cc1` (stereo not given), the IC50 is 13.8 µM.

As for `Cc1ccccc1OCC(=O)Nc1ccc(S(=O)(=O)N2CCCC2)cc1`, the IC50 was 7.95 µM.

For `CC(C)(C)OC(=O)N[C@@H](Cc1ccccc1)c1nnc(S(=O)(=O)Cc2cccc(F)c2)o1`, the half-maximal inhibitory concentration (IC50) is 2.28 µM.

In the case of `COc1ccc(C(=O)O/N=C(\N)Cc2ccc(Cl)c(Cl)c2)cc1OC`, the IC50 was 1.38 µM.

`O=C1CC(Sc2nnnn2-c2ccccc2)C(=O)N1c1cccc(Cl)c1` (stereo not given): the IC50 was 2.92 µM.

As to `O=C(NNC(=S)Nc1cccc(C(F)(F)F)c1)c1ccc(Cl)cc1Cl`, the IC50 was 7.04 µM.

On to `C[C@@H]1CC=C[C@H]2[C@H]1C(=O)N(Cc1ccccc1)[C@H]2c1ccc(-c2ccoc2)cc1F`, for which the IC50 is 12.9 µM.

Take `N/C(=N\OC(=O)CCC1CCCC1)c1ccccc1`: the IC50 is 29.6 µM.

In the case of `CC(C)C(=O)N1CCN(c2ccccc2NC(=O)c2ccc([N+](=O)[O-])o2)CC1`, the 50% inhibitory concentration (IC50) was 8.89 µM.

Consider `O=C(NNC(=S)Nc1ccc(Cl)cc1)c1ccccc1OC(F)F`, for which the IC50 is 8.73 µM.

On to `CC1=C/C(=N\OS(=O)(=O)c2ccccc2)C(C)=CC1=O`, for which the IC50 is less than 0.2 µM.

As for `O=C(NC(=S)NNC(=O)c1ccccc1[N+](=O)[O-])c1ccc(Br)cc1`, the IC50 was 12.5 µM.

As for `N/C(=N\OC(=O)c1ccc(Cl)cc1)c1ccc(Cl)cc1`, the IC50 is > 100 µM (inactive).

For `Cc1ccc(S(=O)(=O)c2nc(S(C)(=O)=O)sc2N2CCCCC2C)cc1` (stereo not given), the IC50 is 11.7 µM.

With `O=C(NNC(=S)Nc1cccc(C(F)(F)F)c1)c1cccc(Cl)c1`, the IC50 is 25.5 µM.

In the case of `N/C(=N\OC(=O)CCCc1ccccc1)c1ccccc1Cl`, the IC50 was 14 µM.

In the case of `Cc1cccc(NC(=S)N/N=C2/CCCCc3ccccc32)c1`, the IC50 is 7.44 µM.

Regarding `Cc1ccccc1/C=C/C(=O)c1ccc([N+](=O)[O-])o1`, the IC50 was 1.5 µM.

For `COc1ccc(-c2sc3cc4c(cc3c2C#CC2(N)CCCCC2)OCO4)cc1`, the IC50 is 9.36 µM.

In the case of `COc1ccc(-c2cc(C3CC3)nc3sc(C#N)c(N)c23)cc1`, the IC50 is 6.84 µM.

`COc1ccc(-c2[nH]ncc2N=Nc2ccccc2)cc1`: the IC50 was 9.41 µM.

As for `CN(C)CCCN(C(=O)c1cc2cc([N+](=O)[O-])ccc2s1)c1nc2cc3c(cc2s1)OCCO3`, the half-maximal inhibitory concentration (IC50) is 13.5 µM.

Turning to `Cc1nc(Nc2ccccc2)sc1-c1ccccc1`, the IC50 was 29 µM.

Consider `CCCCNC(=S)Nc1ccc(C(F)(F)F)cc1`, for which the IC50 is 12 µM.

For the compound `O=c1oc2ccccc2c(O)c1/C=C1\C=Nc2ccccc21`, the IC50 is 5.55 µM.

Take `COc1ccc(/C=C/C(=O)c2ccccc2)cc1Cn1nnc2ccccc21`: the IC50 is 7.94 µM.

Consider `O=C(OCn1ncc(Br)c(Br)c1=O)c1ccc(F)cc1`, for which the IC50 was 1.78 µM.

In the case of `O=[N+]([O-])c1ccccc1N/N=C/c1c[nH]c2ccccc12`, the half-inhibitory concentration (IC50) was 15.7 µM.

On to `CC(C)C(c1nnnn1C1CCCC1)N1CCCc2ccccc21` (stereo not given), for which the concentration for half-maximal inhibition (IC50) is 13.7 µM.

`Cc1ccc(F)c([C@H]2C3C=CCC(c4ccccc4)C3C(=O)N2Cc2ccccc2)c1` (stereo not given in full): the IC50 was 14.7 µM.

In the case of `Cc1cc(C)c(CSc2ncc(-c3ccc([N+](=O)[O-])cc3)[nH]2)c(C)c1`, the IC50 is 17.4 µM.

In the case of `O=c1c2ccccc2[se]n1-c1ccccc1`, the IC50 was 0.88 µM.

With `Cc1ccc(OCC(=O)O/N=C(\N)Cc2ccc(Cl)cc2)cc1`, the IC50 is 61.9 µM.

For the compound `CCOC(=O)c1ccc(N2C(=O)C=CC2=O)cc1`, the half-maximal inhibitory concentration (IC50) was 0.48 µM.

For `O=S(=O)(CCN(CCS(=O)(=O)C(F)(F)F)CC1CCCO1)C(F)(F)F` (stereo not given), the IC50 was 11.2 µM.

Consider `CCCCc1ccc(NC(=S)Nc2ccc(Nc3ccc(OC)cc3)cc2)cc1`, for which the IC50 was 30.1 µM.

As for `COC(=O)C(C(C)=O)C1=C/C(=N\S(=O)(=O)c2ccc(C)cc2)c2ccccc2C1=O` (stereo not given), the IC50 was 9.86 µM.

As for `Fc1c(F)c(C(F)(F)F)c(F)c(F)c1N/N=C\c1cccs1`, the IC50 is 7.37 µM.

Take `COc1cc(/C=C/c2ccc3cccc(O)c3n2)c(Br)cc1O`: the IC50 was 18.2 µM.

Take `COc1cc(OC)c(C(=O)O/N=C(\N)c2ccc(C)cc2)cc1OC`: the IC50 was 6.94 µM.

Consider `O=C1C2C3C=CC(CO)(O3)C2C(=O)N1c1ccccc1-c1ccccc1` (stereo not given), for which the IC50 was 1.83 µM.

Turning to `CN=C(Nc1cc(Cl)ccc1Cl)SC1CC(=O)N(c2ccc(C(=O)OC)cc2)C1=O` (stereo not given), the IC50 was 15.4 µM.

As for `CN(CCCC(=O)O)c1ccc(N=Nc2ccc([N+](=O)[O-])cc2)cc1`, the IC50 is 11.6 µM.

`N=C(N)c1ccc(/C=C/c2ccc(C(=N)N)cc2O)cc1`: the IC50 is 6.44 µM.

`CCOC(=O)/C=C/C(=O)Nc1cccc([N+](=O)[O-])c1`: the half-maximal inhibitory concentration (IC50) was 2.61 µM.

Turning to `CCSc1nc2ccccc2n1C(=O)/C=C\c1ccc(OC)c(OC)c1`, the IC50 is 11.8 µM.

`CC(=O)N1CCN(c2cc(N3CCc4ccccc4C3)c(F)cc2[N+](=O)[O-])CC1`: the IC50 is 34.7 µM.

As for `CC1(CC(=O)N/N=C/c2ccc(OCc3ccc(Cl)cc3Cl)cc2)OCCCO1`, the 50% inhibitory concentration (IC50) was 4.3 µM.

As for `CCOC(=O)/C=C/C(=O)OCC(=O)Nc1ccc([N+](=O)[O-])cc1`, the IC50 was 7.49 µM.

On to `CC(C)NC(=S)N/N=C1\CCCCc2ccccc21`, for which the IC50 was 10.9 µM.

As to `Cc1ccc(/C(N)=N/OC(=O)c2ccc3c(c2)OCO3)cc1`, the IC50 is 15.5 µM.

Take `Cc1cc([N+](=O)[O-])ccc1-c1ccc(C2Nc3ccccc3C(=O)N2O)o1` (stereo not given): the IC50 is 18.1 µM.

Turning to `CC(C)CN(CC(C)C)C(=S)Nc1ccc(Cl)cc1`, the IC50 was 55.2 µM.

With `O=C(c1cc(COc2ccc(F)cc2Cl)on1)N1CCN(c2cnccn2)CC1`, the IC50 is 5.45 µM.

Take `S=C(NCCCc1ccccc1)Nc1ccc(Cl)cc1`: the IC50 was 7.14 µM.

For `Cn1c(/C=C/c2ccc([N+](=O)[O-])o2)nc2ccccc2c1=O`, the IC50 is 6.28 µM.

With `CCN(CC)C1CC(=O)N(c2cccc(Cl)c2)C1=O` (stereo not given), the IC50 was 2.46 µM.

As to `O=C(N/N=C/c1ccc[nH]1)c1cc(-c2ccc(Cl)cc2)nc2ccccc12`, the IC50 was 8.98 µM.

`Nc1nc(N)c(C=Nc2ccc(Br)cc2)c(Nc2ccc(Br)cc2)n1`: the IC50 is 14 µM.

As to `COc1ccc(-n2cc(-c3ccccc3)c3c(=S)nc[nH]c32)cc1`, the IC50 is 38.4 µM.

For `CCOC(=O)c1c(OCC)[nH]c2c1cc(O)c1ccccc12`, the IC50 was 17.1 µM.

On to `CCOC(=O)c1c(CSc2ccc(C)cc2)n(C)c2cc(Br)c(O)c(CN(C)C)c12`, for which the IC50 was 19.9 µM.

Regarding `Cc1ccc(NC(=O)c2cc(S(=O)(=O)NCCC3=CCCCC3)ccc2F)cc1`, the half-inhibitory concentration (IC50) was 33.2 µM.

Consider `CC(C)c1nnc(NC(=O)CCS(=O)(=O)c2nc(-c3cccs3)cc(C(F)(F)F)n2)s1`, for which the IC50 was 8.43 µM.

For `CCCCNC(=S)N=Nc1c(O)[nH]c2ccccc12`, the IC50 is 4.92 µM.

On to `COc1ccc(/C(C)=N/NC(=S)NCCc2ccccc2)cc1`, for which the IC50 is 19.5 µM.

Turning to `CC1=C/C(=N\OS(=O)(=O)c2ccccc2)C=CC1=O`, the IC50 was 0.27 µM.

For the compound `Cc1ccc(CNC(=O)c2ccc(Cn3nc(C)c(Cl)c3C)o2)cc1`, the IC50 was 17.4 µM.

Consider `C=CC(=O)Oc1ccc(N2Cc3ccccc3C2=O)cc1`, for which the 50% inhibitory concentration (IC50) is 3.33 µM.

As for `CCCOc1ccccc1NC(=O)/C=C/C(N)=O`, the IC50 is 2.34 µM.

Consider `N/C(=N\OC(=O)c1ccc(F)cc1)c1ccc(Br)cc1`, for which the IC50 is 3.14 µM.

Turning to `CCCOc1ccc(CN(CCC#N)C(=S)NC(=O)c2ccccc2)cc1`, the 50% inhibitory concentration (IC50) was 22.7 µM.

`CCOc1ccccc1NC(=O)/C=C/C(N)=O`: the IC50 was 7.36 µM.

For `COc1ccc2sc(N(CCCN(C)C)C(=O)c3ccc(S(=O)(=O)N4CCCc5ccccc54)cc3)nc2c1`, the IC50 was 11.9 µM.

Consider `COc1ccc(NC2CCN(C3CC(=O)N(c4ccc(F)c(Cl)c4)C3=O)CC2)cc1` (stereo not given), for which the concentration for half-maximal inhibition (IC50) is 5.66 µM.

Regarding `CCOc1ccccc1N1C(=O)CC(Sc2n[nH]c(-c3ccccc3)n2)C1=O` (stereo not given), the IC50 was 4.1 µM.

As to `N/C(Cc1ccc(Cl)cc1)=N\OC(=O)c1ccc2ccccc2c1`, the half-inhibitory concentration (IC50) was 0.38 µM.

On to `O=C(Nc1cccnc1)c1cn(-c2ccccc2)nc1-c1cccs1`, for which the IC50 was 28.4 µM.

As to `Cc1cc(C)cc(N2C(=O)CC(Sc3nnnn3-c3ccccc3)C2=O)c1` (stereo not given), the IC50 is 1.26 µM.

As for `COc1ccc(Cl)cc1NC(=O)CN(C)C(=O)C12CC3CC(CC(Cl)(C3)C1)C2`, the IC50 was 23.8 µM.

Take `Cc1nonc1C1CCCN1C(=O)c1cc(COc2cccc(C(F)(F)F)c2)on1` (stereo not given): the half-inhibitory concentration (IC50) was 19.2 µM.

On to `CCOC(=O)c1cc(-c2cccs2)nc2c1c(C)nn2-c1ccccn1`, for which the IC50 is 17.3 µM.

Take `Clc1ccccc1OCc1nnc(-c2ccccc2Br)o1`: the IC50 was 32.9 µM.

As to `CC(C)(C)c1ccc(CN2N=Nc3ccccc3S2(=O)=O)cc1`, the IC50 is 5.66 µM.

Take `c1ccc(Nc2cccc(Nc3ccccc3)c2)cc1`: the concentration for half-maximal inhibition (IC50) is 11 µM.

With `NNc1nc(-c2ccccc2)c2cc(Br)ccc2n1`, the half-inhibitory concentration (IC50) was 21.8 µM.

In the case of `N/C(=N\OC(=O)CCC1CCCC1)c1cccc([N+](=O)[O-])c1`, the IC50 was 10.8 µM.

Consider `COc1cc(N=c2ssnc2Cl)c(OC)cc1Cl`, for which the IC50 is 3.77 µM.

On to `Cc1ccc(NC(=O)c2ccc(Cl)c(N3C(=O)C=CC3=O)c2)cc1`, for which the IC50 is 4.13 µM.

With `Cc1ccc(NC(=S)/N=C(\N)Nc2nc(C)c3cc(C)ccc3n2)c(C)c1`, the IC50 is 17 µM.
